One block for each compound: values may come before it. Numbered stars: 1 amine (or outer) side, 2 acyl side, 3 side chain; on linkers, the order of the positions; unused ones are H or OH. Square brackets hold non-standard residues; d marks the D form. Peptide text beside a SMILES is read from it. X1 = [N-]=[N+]=NCCCCN1C[C@@H](N[*:1])C[C@H]1C(=O)[*:2]
Key:
human αvβ6 integrin = target: T1, human αvβ6 integrin (Homo sapiens, UniProt P06756+P18564, DEL708-788); test: Competitive solid-phase αvβ6 integrin binding assay to coated LAP; conditions: competitive solid-phase binding to coated LAP (0.4 μg/mL); soluble human αvβ6 0.25 μg/mL; compounds 10^-5–10^-10 M, 1 h room temperature; absorbance 450 nm; mean ± SD of three independent experiments in triplicate
T1 construct: purchased R&D Systems
Protocol: The ability of conjugate 1 to bind to the human, isolated αvβ6 integrin receptor was evaluated by a competitive solid-phase ligand-binding assay on purified αvβ6 integrin in the presence of increasing concentrations (10^–10–10^–5 M) of 1. To better evaluate the impact of the linker and nintedanib moieties on the binding capability of 1, the results (Table ) were compared to those obtained for free cyclopeptide 3 and previously reported cyclopeptide 11 (the deprotected version of prot-11, Scheme ). Binding curves are provided in Figure S3, Supporting Information.
The affinity of integrin ligands 1, 3, and 11 was determined by the solid-phase binding assay using soluble αvβ6 integrin and coated LAP, according to a previously reported protocol. Flat-bottom 96-well plates (Corning Costar, Segrate, Milan, Italy) were coated by passive adsorption with LAP (TGF-β; 0.4 μg/mL; R&D Systems) in carbonate buffer (15 mM Na2CO3 and 35 mM NaHCO3, pH 9.6; 100 μL/well) overnight at 4 °C. After three washes with PBS-T buffer (phosphate-buffered saline–Tween20, 137 mM NaCl, 2.7 mM KCl, 10 mM Na2HPO4, 2 mM KH2PO4, and 0.01% Tween20, pH 7.4; 200 μL/well), wells were blocked with TS-B buffer (Tris–saline/BSA buffer; 20 mM Tris–HCl, 150 mM NaCl, 1 mM CaCl2, 1 mM MgCl2, 1 mM MnCl2, pH 7.5, and 1% BSA; 150 μL/well) for 1 h at room temperature. After washing the assay plate three times with PBS-T (200 μL/well), soluble human αvβ6 integrin (0.25 μg/mL, R&D Systems) was incubated with compounds and tested at different concentrations (10^–5–10^–10 M), in the coated wells for 1 h at room temperature. The plate was washed three times with PBS-T buffer, and anti-αv primary antibody (1:500 dilution, 100 μL/well; mouse antihuman MAB1978, Merck Life Science, Milan, Italy) was added and incubated for 1 h at room temperature. […] The reaction was stopped with 1 M H2SO4 (50 μL/well), and the absorbance was measured at 450 nm with an EnSpire Multimode Plate Reader (PerkinElmer, Waltham, MA). […] Data analysis and IC50 affinity values were calculated using GraphPad Prism 10.4.1 (GraphPad Software, San Diego, CA). […]

[1] = In vitro stability in mouse plasma (LC-MS/MS); type: in vitro ADME; conditions: 80% v/v mouse plasma in 100 mM PBS pH 7.4, 37 °C, plasma pre-incubated 10 min, 1% DMSO, LC-MS/MS (MRM, ESI+), vs t = 0, mean ± SD (n=3), read-out: % Compound at 6h mouse plasma
Protocol: (§1) 2. In vitro plasma stability of compounds 1 and 2
(§2) Stability of compounds 1 and 2 in mouse and human plasma was evaluated by incubating 5 μL of a 100 µM solution of each compound in DMSO with 400 μL of plasma and 95 μL of 100 mM phosphate buffered saline (PBS) pH 7.4 (final compound concentration: 1 µM; final DMSO concentration: 1%). Plasma samples were pre-incubated at 37 °C for 10 min before adding the compound. At different time points, an aliquot was withdrawn from each sample and deproteinized by addition of 100 μL of ice-cold acetonitrile containing the structurally related compound 13 as internal standard (Table S1). After a centrifugation step (14,000 g, 10 min, 4 °C), the supernatants were analyzed by LC-MS/MS. A multiple reaction monitoring (MRM) acquisition method in positive ion mode (ESI+) was set up to monitor the remaining percentages of test compound at different time points, if compared to time t = 0.
(§3) LC-MS/MS Analytical Method. A Thermo TSQ Quantum triple-quadrupole mass spectrometer (Thermo Italia, Milan, Italy) equipped with a heated electrospray (H-ESI) ion source and coupled to a Thermo Accela UHPLC system was employed for LC-MS/MS data acquisition and analysis. The LC separation occurred on a Waters XSelect HSS T3 column (3.5 μm, 2.1 × 100 mm; Waters, Milford, USA) at room temperature. […]

[2] = In vitro stability in human plasma (LC-MS/MS); type: in vitro ADME; conditions: 80% v/v human plasma in 100 mM PBS pH 7.4, 37 °C, plasma pre-incubated 10 min, 1% DMSO, LC-MS/MS (MRM, ESI+), vs t = 0, mean ± SD (n=3), read-out: % Compound at 6h human plasma
Protocol: as §1, §2, §3

hIPF fibroblasts = test: Cell internalization by flow cytometry (intrinsic nintedanib fluorescence); type: cell-based, human; conditions: 24 h, 5 μM, flow cytometry λex 405 nm, BV421 channel, one representative result
Protocol: Cells were exposed for 24 h for treatment with compound 1 or nintedanib at 5 μM concentration; next, the percentage of positive cells of different treatment populations was determined and compared with the fluorescence intensity of untreated (UT) cells.
The integrin-mediated cell internalization of conjugate 1 and free nintedanib was determined by exploiting the intrinsic fluorescence of the nintedanib moiety (λex = 405 nm; λem = 480 nm). Intracellular fluorescence activity of 5 μM nintedanib was measured by flow cytometry. Fluorescence emission was analyzed using the BD Brilliant Violet 421 channel (450/50 nm bandpass filter) for the 405 nm laser.
Briefly, 150,000 cells were seeded in T25 flasks in complete culture medium and treated for 24 h with nintedanib or compound 1 at 5 μM concentration. After incubation, the cells were washed with PBS, gently detached using trypsin–EDTA solution, and resuspended in complete medium. After centrifugation (1500 rpm for 5 min), the cells were washed in PBS and resuspended in 300 μL of PBS for FACS analysis.

[3] = system: TGF-β1 in hIPF fibroblasts; test: Western blot of intracellular TGF-β1 (44 kDa) expression; type: cell-based, human; conditions: 24 h, 5 μM, Western blot densitometry normalized to vinculin, vs untreated, three independent experiments
Excerpt: (§4) The effect of treatment with compound 1 on patient-derived hIPF fibroblasts was next investigated by evaluating the inhibition of both TGF-β1 production and ERK1/2 phosphorylation. It is important to note that TGF-β1 expression is usually evaluated in cultured cells in secreted form in their culture medium (soluble and active form of TGF-β1 (13 kDa)). We reasoned that the evaluation of the intracellular form of full-length TGF-β1 (44 kDa) in hIPF fibroblasts might directly reflect the potency of the conjugated compound to inhibit TGF-β1 production. Evaluation of these fibrosis-related hallmarks would have been indicative of the downstream effect of our conjugate on IPF-related human cell signaling promoted by either the integrin ligand, the nintedanib component, or both. […]
(§5) The protein content in each sample was quantified using the Bradford colorimetric assay, and 56 μg of total proteins was prepared for SDS-PAGE analysis using Bolt LDS Sample Buffer 4× (Novex, Life Technologies) with 10% Bolt Sample Reducing Agent 10× (Novex, Life Technologies). […] Each band detected was quantified by densitometric analysis, using ImageJ software, and normalized against vinculin expression as the housekeeper protein.

[4] = system: p-ERK1/2 in hIPF fibroblasts; test: Western blot of ERK1/2 phosphorylation; type: cell-based, human; conditions: 24 h, 5 μM, Western blot densitometry normalized to vinculin, vs untreated, three independent experiments
Excerpt: as §4, §5

[5] = system: BLM-induced lung fibrosis; test: Antifibrotic therapy in BLM-induced lung fibrosis mouse model (Study #2; μCT, histology); type: in vivo, C57Bl/6 mice; conditions: day 14 to 21, BLM mice; for severe fibrotic lesions (Ashcroft score, histology): left lobe, Picrosirius red, day 21, vs BLM
Excerpt: After triple BLM instillation, all mice underwent μCT imaging on days 14 and 21, indicating the beginning and the end of the therapeutic window. , On day 14, the BLM-treated mice were divided into 5 groups, namely, Vehicle, NINT (23), NINT (94), PepNIN 1 (23), and Ligand 11 (23). […] The two remaining groups received the NINT (23) (nintedanib at 23 μmol/kg) and ligand 11 (23) (cyclopeptide ligand 11 at 23 μmol/kg) alone to investigate the therapeutic effect of each single component at this reduced dosage.
Bleomycin hydrochloride (Baxter) dissolved in 50 μL of saline was administered via a triple oropharyngeal aspiration (OA) under 2.5% isoflurane anesthesia to induce pulmonary fibrosis, as previously described. , The negative control group received a triple OA with saline (Saline).
In Study #2, BLM-treated mice (29 of 35 mice) on day 14 were divided into 5 different groups (reported in Table S2, Supporting Information) and were daily treated with nintedanib (94 or 23 μmol/kg), PepNIN 1 (23 μmol/kg), integrin ligand 11 (23 μmol/kg), or vehicle (1% Tween 80 in ultrapure water) by oral gavage from day 14 to day 21. All mice were longitudinally monitored by μCT imaging on days 14 and 21, and subsequently they were sacrificed for the histological assessment of lung fibrosis.
Mice thoraxes were imaged using a Quantum GX Micro-CT scanner (Revvity, Inc. Waltham, MA) after anesthetic induction and maintenance with 2% isoflurane. Images were taken in free-breathing mice using the following parameters: an X-ray tube current of 88 A, an X-ray tube voltage of 90 kV, and a total angle of 360° over a scan period of 4 min. The detector was 736 × 588 pixels with a size of 0.2 mm. The reconstruction method automatically trimmed the pixels to produce a projection size of 512 × 512 pixels. Binning was not employed. Each animal was placed supine on the scanner bed, with its chest adjusted to fit inside the field of view. To detect the breathing pattern, pictures were captured in “high-speed” mode, allowing the recording of the gating signal through a region of interest (ROI) positioned over the animals’ diaphragm. Projections were collected in “list mode” (labeled as “00000”, “00001”, ···, “14′687”) during a single continuous gantry rotation. […] The acquisition duration was 4 min, and around 900 projections (both P01 and P02) were automatically selected and used for the reconstruction of the two data sets, with the option to change the thresholds to select the most suited projections. However, our highly controlled anesthetic protocol , enabled us to maintain constant breathing rates (100–120 bpm). Two stacks of 512 cross-sectional images were automatically reconstructed into two 3D data sets corresponding to the inspiratory and expiratory breathing phases (end-inspiration, P01; end-expiration, P02), with a 50 μm isotropic reconstructed voxel size, using a filtered back-projection algorithm with a Ram-Lak filter.

human recombinant VEGFR = system: human recombinant VEGFR; parameters: method as in previously reported, see ref (number not given); conditions: ref previously reported, see ref (number not given); read-out: IC50, TKI activity against human recombinant VEGFR; cited from earlier work
[6] = target: soluble human αvβ6 integrin (human) (UniProt P06756); test: ELISA; competitive solid-phase binding assay: LAP (0.4 μg/mL) coated in carbonate buffer pH 9.6 overnight at 4 °C, blocked with TS-B buffer (20 mM Tris–HCl, 150 mM NaCl, 1 mM CaCl2, 1 mM MgCl2, 1 mM MnCl2, pH 7.5, 1% BSA); soluble human αvβ6 (0.25 μg/mL) incubated with compounds (10^-5–10^-10 M) in the coated wells 1 h at room temperature; bound integrin detected with anti-αv antibody and HRP secondary
[7] = 94 μmol/kg oral gavage daily, vs BLM group

Compound: CC(C)C[C@@H]1NC(=O)[C@H](CC(=O)O)NC(=O)CNC(=O)[C@H](CCCNC(=N)N)NC(=O)[C@H](CC(C)C)NC(=O)[C@@H]2C[C@@H](CN2C(=O)CCCCCNC(=O)CCc2ccc(OC3=C(/C=C/C4=[N+](CCC[N+](C)(C)C)c5ccc(S(=O)(=O)O)cc5C4(C)C)CCC/C3=C\C=C3\N(CCC[N+](C)(C)C)c4ccc(S(=O)(=O)O)cc4C3(C)C)cc2)NC1=O [compound 2]
remaining at 6 h [1]: 59 ± 3%
remaining at 6 h [2]: 51 ± 3%

Compound: CC(C)C[C@@H]1NC(=O)[C@H](CC(=O)O)NC(=O)CNC(=O)[C@H](CCCNC(=N)N)NC(=O)[C@H](CC(C)C)NC(=O)[C@@H]2C[C@@H](CN2CCCCN=[N+]=[N-])NC1=O [compound 3] (cyclo(RGDL[X1]L))
IC50 (human αvβ6 integrin): 4.52 ± 0.68 nM

Compound: COC(=O)c1ccc2c(c1)NC(=O)/C2=C(\Nc1ccc(N(C)C(=O)CN2CCN(C)CC2)cc1)c1ccccc1 [nintedanib]
percentage of positive cells (internalization) (hIPF fibroblasts): about 94%
percentage of positive cells (internalization) (hIPF fibroblasts; listed as NINT): 93.8%
expression of intracellular form of TGF-β1 (44 kDa) [3]: reduced
ERK1/2 phosphorylation [4]: reduced
severe fibrotic lesions (Ashcroft score, histology) ([5]; 23 μmol/kg oral gavage daily): had no effects
lung aeration by longitudinal μCT (%GasExpiration, poorly aerated tissue) ([5]; 23 μmol/kg oral gavage daily, vs BLM group): tendency toward disease progression
severe fibrotic lesions (Ashcroft score, histology) ([5]; 94 μmol/kg oral gavage daily): clearly reduced severe fibrotic lesions
CT biomarkers adjusted to own basal value on day 14 [5, 7]: statistically significant improvement
lung aeration by longitudinal μCT (%GasExpiration, poorly aerated tissue) [5, 7]: significantly improved lung aeration
IC50 (human recombinant VEGFR): 7 nM

Second part, led by results:

IC50 (human αvβ6 integrin): 1.95 ± 0.16 nM
Compound: COC(=O)c1ccc2c(c1)NC(=O)/C2=C(\Nc1ccc(N(C)C(=O)CN2CCN(CCOCCOCCOCc3cn(CCCCN4C[C@@H]5C[C@H]4C(=O)N[C@@H](CC(C)C)C(=O)N[C@@H](CCCNC(=N)N)C(=O)NCC(=O)N[C@@H](CC(=O)O)C(=O)N[C@@H](CC(C)C)C(=O)N5)nn3)CC2)cc1)c1ccccc1 [compound 1]
remaining at 6 h [1]: 95 ± 4%
remaining at 6 h [2]: 96 ± 5%

IC50 (human αvβ6 integrin): 30.3 ± 7.6 nM
Compound: CC(C)C[C@@H]1NC(=O)[C@H](CC(=O)O)NC(=O)CNC(=O)[C@H](CCCNC(=N)N)NC(=O)[C@H](CC(C)C)NC(=O)[C@@H]2C[C@@H](CN2C(=O)CCCCCN=[N+]=[N-])NC1=O [compound 11]

IC50 [6]: 24.7 nM
Compound: c(phg-isoDGRk) (peptide)

From publication PMC12519263, “Antifibrotic Efficacy of a Nintedanib–Peptide Conjugate and Diagnostic Potential of a Fluorescent Companion Probe Targeting αVβ6 Integrin in Idiopathic Pulmonary Fibrosis” (ACS Pharmacology & Translational Science, 2025)
